# According to patent publication US20240100127A1, “TIRZEPATIDE THERAPEUTIC METHODS” (Eli Lilly and Company, priority 2021, published 2024):
# Tested on: patients with T2DM with HbA1c between ≥7.0% and ≤10.5% on metformin or metformin plus an SGLT-2 inhibitor
# Test: Example 1 clinical trial using tirzepatide, 52 weeks, versus insulin degludec
# Type: in vivo, human
# Conditions: standard titration protocol
# From the text: The enrollment criteria, set forth in Table 1 below, are designed to include participants who are similar to patients seen within a typical diabetes practice, and include some patient with type 2 diabetes that is refractory to oral treatment. Geriatric patients are included. Mean duration with type 2 diabetes about 8 years. Study continues for 52 weeks.
# The study is designed to consist of a screening visit followed by a single-blind 3-week placebo run-in period. Afterwards, patients are randomized to tirzepatide 5, 10, or 15 mg (dosed using an escalation dose protocol) or insulin degludec (standard titration protocol) and followed at approximately monthly intervals. Patients receiving insulin degludec follow standard insulin degludec titration protocol during the study. Study protocol includes blood pressure measurement at each visit and serum lipid profile at study initiation and at 52 weeks using standard clinical methods. Blood Pressure measures using the methods of Example 1 are represented in FIGS. 3 and 4. HDL-C levels using the methods of Example 1 are represented in FIG. 1.
substance,measurement,value
insulin degludec,Percent patients achieving ≤5.7% HbA1c by 52 weeks,insulin degludec: 5.4%
